Data published in PMC6298432 (ACS chemical biology, 2017).

Experiments:
[1] = test system: Mycobacterium tuberculosis (Mtb); type: cell-based; conditions: active = ≥80% inhibition of bacterial growth
[2] = test system: M. tuberculosis ATCC 27294; assay: M. tuberculosis growth inhibition assay; type: cell-based
[3] = test system: mouse dihydrofolate reductase; conditions: cited from earlier work
E. coli = assay: Historical phenotypic screen for inhibitors of E. coli growth; type: cell-based; conditions: active = ≥80% inhibition of bacterial growth
[4] = test system: FolA (dihydrofolate reductase, DHFR); assay: ALIS binding to FolA; set-up: species or system E. coli
[5] = biological target: FolA (dihydrofolate reductase, DHFR); conditions: cited from earlier work

## C#CCN(Cc1cnc2nc(N)nc(N)c2n1)c1ccc(C(=O)N[C@@H](CCC(=O)O)C(=O)O)cc1 [10-PAP, 10-propargylaminopterin]
[1]
  Activity in Mtb growth phenotypic screen: active
[2]
  Inhibition of Mtb growth (antibacterial activity): retained bioactivity
[3]
  Inhibition of mouse dihydrofolate reductase: inhibit

## COc1ccc(Cc2cnc(N)nc2N)cc1OC [Diaveridine]
E. coli
  Activity in E. coli growth phenotypic screen: active
[4]
  Binding to FolA detected in ALIS: binders detected
[5]
  IC50 for FolA: nanomolar

## CN(Cc1cnc2nc(N)nc(N)c2n1)c1ccc(C(=O)N[C@@H](CCC(=O)O)C(=O)O)cc1 [Methotrexate]
[2]
  Inhibition of Mtb growth (antibacterial activity): no efficacy

## COc1cc(Cc2cnc(N)nc2N)cc(OC)c1OC [Trimethoprim]
E. coli
  Activity in E. coli growth phenotypic screen: active

## COc1cc(Cc2cnc(N)nc2N)cc(OC)c1Br [brodimoprim]
[4]
  Binding to FolA detected in ALIS: failure to detect their binding
